Entries after “also recorded” stand apart in the source; their conditions may differ.
Experiments:
[1] = Stability in presence of 3-mercaptopropionic acid by 1H-NMR; assay type: physicochemical; settings: 25 mM in CDCl3 with 3-mercaptopropionic acid (32 mM), 25° C., 24 h
Procedure: A potential problematic side reaction of cyclooctynes is the addition with proteinic or endogenous thiols to the corresponding vinyl sulfides. To test whether potential non-specific stainings of 101 and the corresponding triazole 111 may occur due to additions of the SH groups to the triple bond or double bond by proteinic or endogenous thiols, the experiment was performed by incubation of 101 and 111 with 3-mercaptopropionic acid in CDCl3 (FIGS. 25 and 26).
A solution of compound 101 and compound 111 (25 mM in CDCl3) was incubated with a solution of 3-mercaptopropionic acid (32 mM in CDCl3) at room temperature (25° C.).
FIG. 25 show ^1H-NMR spectrum in CDCl3 of compound 101 and 3-mercaptopropionic acid alone, and ^1H-NMR spectrum of compound 101 was treated with 3-mercaptopropionic acid at 25° C. for 0 h, 2 h and 24 h.

[2] = Absorption and fluorescence spectroscopy under simulated physiological conditions; assay type: physicochemical; settings: PBS buffer containing 10% DMSO, pH 7.4
Procedure: Formation of triazoles 111 and 112 were accompanied by a significant increase in fluorescence intensity with a large Stokes shift into a standard range for coumarin emission (FIG. 16a).
FIG. 16 describes (a) Absorption and Fluorescence emission spectra (λex=330 nm) of 101 (black), 111 (blue) and 112 (red) (45 μM, PBS buffer containing 10% DMSO, pH 7.4). (b) Time course of normalized fluorescence intensity at 435 nm (λex=330 nm) for the ligation reaction of 101 (30 μM) with N-azidoacetylmannosamine (30 μM) in PBS buffer containing 10% DMSO.

[3] = SPAAC reaction kinetics of 101 with benzyl azide monitored by 1H-NMR; assay type: physicochemical; settings: 101 with benzyl azide (1:1), 20 mM, CD3CN, 25° C.
Procedure: To evaluate the feasibility of compound 101 as a reagent for the SPAAC-based fluorescence labeling, its reaction scope and kinetics using benzyl azide as a model substrate was first studied. The SPAAC reaction of 101 with benzyl azide in acetonitrile was completed in 2 h at room temperature to give triazole 111 in 95% yield (Scheme 100). The reactivity of 101 with benzyl azide (1:1) in CD3CN was determined by integration of multiple chemical shifts in the ^1H-NMR spectrum to yield a second-order rate constant of 0.012 M^−1s^−1 at 25° C. We also observed the cycloaddition reaction between 101 and N-azidoacetylmannosamine (ManNAz), proceeding similarly to give triazole 112 with a second-order rate constant of 0.010 M^−1s^−1 at 25° C. in a solution of CD3OD-D2O (5:1, v/v) (FIGS. 17 and 18).
Part A: Compound 101 and benzyl azide were predissolved in CD3CN, and then mixed at equimolar concentration of 20 mM. The reaction was monitored by ^1H-NMR analysis over a period of 1 h. The concentration of each component was determined, based on the concentration of initial compound 101, by integration at multiple chemical shifts in the ^1H-NMR spectrum. […] (M^−1) vs. time (sec), a second order rate constant in unit of M^−1s^−1 was determined using linear regression analysis. […]
FIG. 17 describes a Plot of 1/[101] vs. time for the reaction of compound 101 and benzyl azide in CD3CN as monitored by ^1H-NMR.

[4] = tested on: CL1-5 cells; assay: Live cell imaging of azido-glycoconjugates, no-wash and no-fixation; assay type: cell-based; settings: for cell permeability: live CL1-5 cells, intracellular labeling
Procedure: The performance of 101 in live cell imaging was evaluated. For this purpose, highly sialylated lung cancer cells, CL1-5, were cultured in the presence of peracetylated N-azidoacetylmannosamine (Ac4ManNAz) for 3 days to metabolically produce the azido-sialic acid expressed cells. As a negative control, CL1-5 cells were grown in the presence of peracetylated N-acetylmannosamine (Ac4ManNAc). A time course experiment was conducted by exposing the cells at 30-min intervals under no-wash and no-fixation conditions (FIG. 19, FIG. 22). […] Furthermore, the localization of azido-containing glycoconjugates in living cells was visualized by confocal microscopy. The cells labeled by probe 101 were subsequently stained with anti-GRASP65 followed by FITC-conjugated anti-rabbit for Golgi and propidium iodide (PI, a nuclei marker).
Toward this goal, CL1-5 cells were incubated with Ac4ManNAz for 1 h and subsequently removed excess Ac4ManNAz. We then performed the imaging to monitor the trafficking of the sialylated glycoconjugates. […] However, the appearance of blue fluorescence signal was detected on the cell surface after 5 h. The intensity of fluorescence increased over time, and reached saturation at 8 h (FIG. 21 and FIG. 23).
To observe the fluorescence labeled azido-glycoconjugates in cells, CL1-5 cells were seeded on chamber slide (2.5×10^4 cells/0.5 mL per wells) and incubated in culture medium (RPMI-1640 supplemented with 10% FBS, 100 U/mL penicillin, 100 μg/mL streptomycin, 1 mM L-glutamine and 1 mM sodium pyruvate) with either 200 μM of control sugar (peracetylated N-acetylmannosamine, Ac4ManNAc) or azido-sugar (peracetylated N-azidoacetylmannosamine, Ac4ManNAz) for 3 days.
For Time-lapse imaging of live cells, experiments were carried out using a confocal microscope (TCS-SP5-MP-SMD, Leica) equipped with an incubator to keep the cells in culture conditions. Prewashed cells were incubated with 100 μM of probe 101 in PBS with 10% DMSO and fluorescence imaging of live cells from the previous experiment over 1.5 h. The images were acquired at 450 nm emission and in 5-min intervals.
To observe the fluorescence labeled sialylconjugates in cells dependent on different time, CL1-5 cells were seeded on chamber slide (2.5×10^4 cells/0.5 mL per wells) and incubated in culture medium (RPMI-1640 supplemented with 10% FBS, 100 U/mL penicillin, 100 μg/mL streptomycin, 1 mM L-glutamine and 1 mM sodium pyruvate) with 500 μM of azido-sugar (peracetylated N-azidoacetylmannosamine, Ac4ManNAz) for 1 h. Cells were washed three times with PBS and then incubated in culture medium. […] For fluorescence imaging of live cells, experiments were carried out using a confocal microscope (TCS-SP5-MP-SMD, Leica) equipped with an incubator to keep the cells in culture conditions.

thiol-yne or thiol-ene addition / stability in the presence of thiols [1]: inactive; also recorded: high stability
Absorption (λmax, nm) [2]: 336 nm
Stokes shift [2]: 5070 cm⁻¹
Emission (λmax, nm) ([2]; excitation at 330 nm): 405 nm
ε (M^−1cm^−1), extinction coefficient ([2]; measured at 340 nm): 7800 M⁻¹ cm⁻¹
Φf, fluorescence quantum yield ([2]; quinine sulfate (Φf = 0.54 ± 0.03) as standard): 0.011
cell permeability [4]: cell-permeable
cell permeability ([4]; listed as coumOCT): cell-permeable probe
Structure (SMILES): O=c1ccc2cc3c(cc2o1)C#CCCCC3 [Compound 101, 6,7,8,9-Tetrahydro-10,11-didehydro-cycloocta[g]chromen-2(2H)-one]
second-order rate constant [3]: 0.012 M⁻¹ s⁻¹
incubation time to saturation of fluorescence intensity ([4]; Ac4ManNAz treated CL1-5 cells, 100 μM probe, no-wash and no-fixation): 1.5 h
background labeling ([4]; control cells grown with Ac4ManNAc): background labeling is negligible
